The results in this text go back to paper PMC5218480 (PLoS ONE, 2017).

The subject of the assay is MV-4-11 cells. Nature of the assay: Gene expression microarray analysis (Affymetrix PrimeView) and GSEA. It counts as cell-based, human. Further details: RFU PODN (11730768_x_at) / Fold change /veh PODN (11730768_x_at) / RFU LINC00158 (11744669_a_at) / Fold change /veh LINC00158 (11744669_a_at) / RFU DUSP10 (11751237_a_at) / Fold change /veh DUSP10 (11751237_a_at) / RFU ID3 (11757404_x_at) / Fold change /veh ID3 (11757404_x_at) / RFU PLEKHG5 (11737974_s_at) / Fold change /veh PLEKHG5 (11737974_s_at) / RFU LRRC4B (11730491_at) / Fold change /veh LRRC4B (11730491_at) / RFU GIMAP4 (11747438_a_at) / Fold change /veh GIMAP4 (11747438_a_at) / RFU KRT8 (11758183_x_at) / Fold change /veh KRT8 (11758183_x_at) / RFU CNN1 (11734310_a_at) / Fold change /veh CNN1 (11734310_a_at) / RFU VPS37D (11726825_at) / Fold change /veh VPS37D (11726825_at) / RFU C10orf10 (11716522_x_at) / Fold change /veh C10orf10 (11716522_x_at) / RFU KIR2DL2 /// KIR2DL4 /// KIR2DL5A /// KIR2DL5B /// KIR2DS1 /// KIR2DS2 /// KIR2DS3 /// KIR2DS4 /// KIR3DL3 /// KIR3DL3 /// KIR3DS1 (11738374_at) / Fold change /veh KIR2DL2 /// KIR2DL4 /// KIR2DL5A /// KIR2DL5B /// KIR2DS1 /// KIR2DS2 /// KIR2DS3 /// KIR2DS4 /// KIR3DL3 /// KIR3DL3 /// KIR3DS1 (11738374_at) / RFU C1QL1 (11718748_at) / Fold change /veh C1QL1 (11718748_at) / RFU TMPRSS4 (11747572_a_at) / Fold change /veh TMPRSS4 (11747572_a_at) / RFU HAMP (11756126_x_at) / Fold change /veh HAMP (11756126_x_at) / RFU RNFT2 (11725882_a_at) / Fold change /veh RNFT2 (11725882_a_at) / RFU NR4A2 (11747474_a_at) / Fold change /veh NR4A2 (11747474_a_at) / RFU ABCC12 (11746883_a_at) / Fold change /veh ABCC12 (11746883_a_at) / RFU TMEM136 (11760407_x_at) / Fold change /veh TMEM136 (11760407_x_at) / RFU CLDN22 /// WWC2 (11732394_at) / Fold change /veh CLDN22 /// WWC2 (11732394_at) / RFU HLA-DPB1 (11760878_x_at) / Fold change /veh HLA-DPB1 (11760878_x_at) / RFU SPINT1 (11716480_a_at) / Fold change /veh SPINT1 (11716480_a_at) / RFU GAP43 (11754022_s_at) / Fold change /veh GAP43 (11754022_s_at) / RFU A4GNT (11735810_at) / Fold change /veh A4GNT (11735810_at) / RFU PRB3 (11715151_x_at) / Fold change /veh PRB3 (11715151_x_at) / RFU TUBB4B (11761932_at) / Fold change /veh TUBB4B (11761932_at) / RFU CAPN14 (11732068_a_at) / Fold change /veh CAPN14 (11732068_a_at) / RFU TMCC2 (11721928_a_at) / Fold change /veh TMCC2 (11721928_a_at) / RFU IRGQ (11745062_a_at) / Fold change /veh IRGQ (11745062_a_at) / RFU FAM174B (11720279_a_at) / Fold change /veh FAM174B (11720279_a_at) / RFU TMPRSS4 (11748680_a_at) / Fold change /veh TMPRSS4 (11748680_a_at) / RFU FAM212B (11763350_a_at) / Fold change /veh FAM212B (11763350_a_at) / RFU PLEKHG5 (11743358_a_at) / Fold change /veh PLEKHG5 (11743358_a_at) / RFU ZSCAN30 (11745921_a_at) / Fold change /veh ZSCAN30 (11745921_a_at) / RFU CMKLR1 (11741424_a_at) / Fold change /veh CMKLR1 (11741424_a_at) / RFU LOC101060620 /// MAPK8IP1 (11723275_at) / Fold change /veh LOC101060620 /// MAPK8IP1 (11723275_at) / RFU SPTSSB (11747773_x_at) / Fold change /veh SPTSSB (11747773_x_at) / RFU PRSS12 (11739890_at) / Fold change /veh PRSS12 (11739890_at) / RFU BIN1 (11741810_x_at) / Fold change /veh BIN1 (11741810_x_at) / RFU WNT11 (11732464_a_at) / Fold change /veh WNT11 (11732464_a_at) / RFU C10orf10 (11716521_a_at) / Fold change /veh C10orf10 (11716521_a_at) / RFU C5orf56 (11738089_at) / Fold change /veh C5orf56 (11738089_at) / RFU CYB561 (11721691_x_at) / Fold change /veh CYB561 (11721691_x_at) / RFU ANKRD19P (11752326_a_at) / Fold change /veh ANKRD19P (11752326_a_at) / RFU OR2T12 /// OR2T33 /// OR2T8 (11738714_s_at) / Fold change /veh OR2T12 /// OR2T33 /// OR2T8 (11738714_s_at) / RFU VCAN (11748164_a_at) / Fold change /veh VCAN (11748164_a_at) / RFU JSRP1 (11732532_at) / Fold change /veh JSRP1 (11732532_at) / RFU KRTAP10-11 (11738290_x_at) / Fold change /veh KRTAP10-11 (11738290_x_at) / RFU MYO3A (11730013_a_at) / Fold change /veh MYO3A (11730013_a_at) / RFU EBF3 (11725865_a_at) / Fold change /veh EBF3 (11725865_a_at) / RFU CAMK2N1 (11719241_x_at) / Fold change /veh CAMK2N1 (11719241_x_at) / RFU C5orf56 (11738088_a_at) / Fold change /veh C5orf56 (11738088_a_at) / RFU OLFML3 (11715873_a_at) / Fold change /veh OLFML3 (11715873_a_at) / RFU LOC100653217 /// NTM (11731650_a_at) / Fold change /veh LOC100653217 /// NTM (11731650_a_at) / RFU MAPK11 (11762145_a_at) / Fold change /veh MAPK11 (11762145_a_at) / RFU FIZ1 (11724087_x_at) / Fold change /veh FIZ1 (11724087_x_at) / RFU OASL (11726364_x_at) / Fold change /veh OASL (11726364_x_at) / RFU SOX15 (11748057_x_at) / Fold change /veh SOX15 (11748057_x_at) / RFU CD79A (11719716_a_at) / Fold change /veh CD79A (11719716_a_at) / RFU HIST1H1D (11736915_at) / Fold change /veh HIST1H1D (11736915_at) / RFU CASKIN2 (11723855_a_at) / Fold change /veh CASKIN2 (11723855_a_at) / RFU LOC730098 (11760151_x_at) / Fold change /veh LOC730098 (11760151_x_at) / RFU OR4N2 (11742367_at) / Fold change /veh OR4N2 (11742367_at) / RFU PRRT2 (11749266_a_at) / Fold change /veh PRRT2 (11749266_a_at) / RFU SNX32 (11753110_a_at) / Fold change /veh SNX32 (11753110_a_at) / RFU CDHR5 (11726645_a_at) / Fold change /veh CDHR5 (11726645_a_at) / RFU RCAN1 (11760418_a_at) / Fold change /veh RCAN1 (11760418_a_at) / RFU FAM167A (11723789_a_at) / Fold change /veh FAM167A (11723789_a_at) / RFU FAM26E (11764081_at) / Fold change /veh FAM26E (11764081_at) / RFU ISYNA1 (11749810_s_at) / Fold change /veh ISYNA1 (11749810_s_at) / RFU ACY1 (11761880_at) / Fold change /veh ACY1 (11761880_at) / RFU 11764098_at / Fold change /veh 11764098_at / RFU SAMD14 (11745864_x_at) / Fold change /veh SAMD14 (11745864_x_at) / RFU NPB (11741838_a_at) / Fold change /veh NPB (11741838_a_at) / RFU TMPRSS6 (11731388_a_at) / Fold change /veh TMPRSS6 (11731388_a_at) / RFU KRTAP10-2 (11738614_at) / Fold change /veh KRTAP10-2 (11738614_at) / RFU ARHGAP8 /// PRR5-ARHGAP8 (11727945_x_at) / Fold change /veh ARHGAP8 /// PRR5-ARHGAP8 (11727945_x_at) / RFU KRTAP5-7 /// NADSYN1 (11734609_at) / Fold change /veh KRTAP5-7 /// NADSYN1 (11734609_at) / RFU RASL12 (11751679_a_at) / Fold change /veh RASL12 (11751679_a_at) / RFU CDKN2B (11736163_a_at) / Fold change /veh CDKN2B (11736163_a_at) / RFU PRF1 (11729649_at) / Fold change /veh PRF1 (11729649_at) / RFU, ZNF638 /// ZNF638-IT1 / Fold change vs veh, ZNF638 /// ZNF638-IT1 / RFU, PANK3 / Fold change vs veh, PANK3 / RFU, SH3YL1 / Fold change vs veh, SH3YL1 / RFU, ZEB2 / Fold change vs veh, ZEB2 / RFU, NRIP1 / Fold change vs veh, NRIP1 / RFU, PTTG1IP / Fold change vs veh, PTTG1IP / RFU, CAPN2 / Fold change vs veh, CAPN2 / RFU, MED14 / Fold change vs veh, MED14 / RFU, SNORA58 / Fold change vs veh, SNORA58 / RFU, C1orf63 / Fold change vs veh, C1orf63 / RFU, LRRFIP1 / Fold change vs veh, LRRFIP1 / RFU, NDUFAF7 / Fold change vs veh, NDUFAF7 / RFU, SLC12A2 / Fold change vs veh, SLC12A2 / RFU, IBTK / Fold change vs veh, IBTK / RFU, ESF1 / Fold change vs veh, ESF1 / Fold change vs veh, TMEM50B / RFU, TAOK1 / Fold change vs veh, TAOK1 / RFU, ACBD3 / Fold change vs veh, ACBD3 / RFU, TMA16 / Fold change vs veh, TMA16 / RFU, RWDD3 / Fold change vs veh, RWDD3 / RFU, BCAT1 / Fold change vs veh, BCAT1 / RFU, EDEM3 / Fold change vs veh, EDEM3 / RFU, TMEM33 / Fold change vs veh, TMEM33 / RFU, WDR75 / Fold change vs veh, WDR75 / RFU, AHCTF1 / Fold change vs veh, AHCTF1 / RFU, TFRC / Fold change vs veh, TFRC / RFU, ZDHHC17 / Fold change vs veh, ZDHHC17 / RFU, NOM1 / Fold change vs veh, NOM1 / RFU, ARL8B / Fold change vs veh, ARL8B / RFU, ZBTB11 / Fold change vs veh, ZBTB11 / RFU, TAMM41 / Fold change vs veh, TAMM41 / RFU, KIAA1704 /// LOC100996395 / Fold change vs veh, KIAA1704 /// LOC100996395 / RFU, ING1 / Fold change vs veh, ING1 / RFU, TRMT61B / Fold change vs veh, TRMT61B / RFU, FUBP3 / Fold change vs veh, FUBP3 / RFU, TP53 / Fold change vs veh, TP53 / RFU, TNKS2 / Fold change vs veh, TNKS2 / RFU, ZFP14 / Fold change vs veh, ZFP14 / RFU, ACTR2 / Fold change vs veh, ACTR2 / RFU, PPP3R1 / Fold change vs veh, PPP3R1 / RFU, PIK3R1 / Fold change vs veh, PIK3R1 / RFU, HNRNPA1 / Fold change vs veh, HNRNPA1 / RFU, RNF170 / Fold change vs veh, RNF170 / RFU, ZNF28 / Fold change vs veh, ZNF28 / RFU, RNGTT / Fold change vs veh, RNGTT / RFU, OGT / Fold change vs veh, OGT / RFU, BRD1 / Fold change vs veh, BRD1 / RFU, MARS / Fold change vs veh, MARS / RFU, ZNF655 / Fold change vs veh, ZNF655 / RFU, FAHD1 / Fold change vs veh, FAHD1 / RFU, BDP1 / Fold change vs veh, BDP1 / RFU, LRRCC1 / Fold change vs veh, LRRCC1 / RFU, ARID1A / Fold change vs veh, ARID1A / RFU, ZNF146 / Fold change vs veh, ZNF146 / RFU, ZNF330 / Fold change vs veh, ZNF330 / RFU, GPN3 / Fold change vs veh, GPN3 / RFU, C9orf123 / Fold change vs veh, C9orf123 / RFU, N4BP2L2 / Fold change vs veh, N4BP2L2 / RFU, ARFIP1 / Fold change vs veh, ARFIP1 / RFU, FAM179B / Fold change vs veh, FAM179B / RFU, BCL10 / Fold change vs veh, BCL10 / RFU, UHRF1BP1L / Fold change vs veh, UHRF1BP1L / RFU, BET1 / Fold change vs veh, BET1 / RFU, CNOT2 / Fold change vs veh, CNOT2 / RFU, ZNF268 / Fold change vs veh, ZNF268 / Fold change vs veh, ZNF507 / RFU, DGCR2 / Fold change vs veh, DGCR2 / RFU, WDSUB1 / Fold change vs veh, WDSUB1 / Fold change vs veh, HSP90B1 /// MIR3652 / RFU, ADSS / Fold change vs veh, ADSS / RFU, GK / Fold change vs veh, GK / RFU, ZNF148 / Fold change vs veh, ZNF148 / RFU, TAF9 / Fold change vs veh, TAF9 / RFU, SLC1A5 / Fold change vs veh, SLC1A5 / RFU, SLMO2 / Fold change vs veh, SLMO2 / RFU, ABCC4 / Fold change vs veh, ABCC4 / RFU, LOC101060439 /// RAP1B / Fold change vs veh, LOC101060439 /// RAP1B / RFU, RFX7 / Fold change vs veh, RFX7 / RFU, GTPBP10 / Fold change vs veh, GTPBP10 / RFU, CNEP1R1 / Fold change vs veh, CNEP1R1 / RFU, BIVM-ERCC5 /// ERCC5 / Fold change vs veh, BIVM-ERCC5 /// ERCC5 / RFU, ILF3 / Fold change vs veh, ILF3 / RFU 11762660_at / Fold change /veh 11762660_at / RFU VCAN (11757783_s_at) / Fold change /veh VCAN (11757783_s_at) / RFU DDX43 (11728927_at) / Fold change /veh DDX43 (11728927_at) / RFU KRT8 (11758188_x_at) / Fold change /veh KRT8 (11758188_x_at) / RFU NKD1 (11759106_at) / Fold change /veh NKD1 (11759106_at) / RFU SRD5A1 (11742802_a_at) / Fold change /veh SRD5A1 (11742802_a_at) / RFU TPSAB1 /// TPSB2 (11721975_s_at) / Fold change /veh TPSAB1 /// TPSB2 (11721975_s_at) / RFU GSTM3 (11746129_a_at) / Fold change /veh GSTM3 (11746129_a_at) / RFU IL23R (11737362_x_at) / Fold change /veh IL23R (11737362_x_at) / RFU TMEM51 (11727254_a_at) / Fold change /veh TMEM51 (11727254_a_at) / RFU PIWIL2 (11732686_x_at) / Fold change /veh PIWIL2 (11732686_x_at) / RFU ORM1 (11744905_x_at) / Fold change /veh ORM1 (11744905_x_at) / RFU CCDC152 (11743942_at) / Fold change /veh CCDC152 (11743942_at) / RFU ECM1 (11717891_a_at) / Fold change /veh ECM1 (11717891_a_at) / RFU IL23R (11748794_a_at) / Fold change /veh IL23R (11748794_a_at) / RFU TNFAIP8L3 (11732012_x_at) / Fold change /veh TNFAIP8L3 (11732012_x_at) / RFU MBOAT4 (11741988_at) / Fold change /veh MBOAT4 (11741988_at) / RFU 11764193_at / Fold change /veh 11764193_at / RFU TMEM53 (11763286_at) / Fold change /veh TMEM53 (11763286_at) / RFU MAGEB2 (11727129_at) / Fold change /veh MAGEB2 (11727129_at) / RFU TMEM200A (11744735_a_at) / Fold change /veh TMEM200A (11744735_a_at) / RFU CCDC152 (11751479_a_at) / Fold change /veh CCDC152 (11751479_a_at) / RFU FAM211A (11726209_a_at) / Fold change /veh FAM211A (11726209_a_at) / RFU RGS16 (11746705_a_at) / Fold change /veh RGS16 (11746705_a_at) / RFU VCAN (11755009_s_at) / Fold change /veh VCAN (11755009_s_at) / RFU RHOB (11743442_s_at) / Fold change /veh RHOB (11743442_s_at) / RFU RGS16 (11720943_a_at) / Fold change /veh RGS16 (11720943_a_at) / RFU RGS16 (11720944_at) / Fold change /veh RGS16 (11720944_at) / RFU, VPS4B / Fold change vs veh, VPS4B / RFU, CREB1 / Fold change vs veh, CREB1 / RFU, DNAJC13 / Fold change vs veh, DNAJC13 / RFU, GNAQ / Fold change vs veh, GNAQ / RFU, CDK5R1 / Fold change vs veh, CDK5R1 / RFU, ZRANB3 / Fold change vs veh, ZRANB3 / RFU, CUL4A / Fold change vs veh, CUL4A / RFU, CCNY / Fold change vs veh, CCNY / RFU, UFL1 / Fold change vs veh, UFL1 / RFU, COG3 / Fold change vs veh, COG3 / RFU, DIAPH2 / Fold change vs veh, DIAPH2 / RFU, SKA2 / Fold change vs veh, SKA2 / RFU, AFF3 / Fold change vs veh, AFF3 / RFU, LMF1 / Fold change vs veh, LMF1 / RFU, IPO11 / Fold change vs veh, IPO11 / RFU, DFFB / Fold change vs veh, DFFB / RFU, FOXP1 / Fold change vs veh, FOXP1 / RFU, CARD8 / Fold change vs veh, CARD8 / RFU, STRN3 / Fold change vs veh, STRN3 / RFU, ADK / Fold change vs veh, ADK / RFU, RASSF2 / Fold change vs veh, RASSF2 / RFU, WIPF1 / Fold change vs veh, WIPF1 / RFU, LARP1B / Fold change vs veh, LARP1B / RFU, RASA1 / Fold change vs veh, RASA1 / RFU, RB1 / Fold change vs veh, RB1 / RFU, PPFIA1 / Fold change vs veh, PPFIA1 / RFU, MAT2A / Fold change vs veh, MAT2A / RFU, CCT5 / Fold change vs veh, CCT5 / RFU, WDR92 / Fold change vs veh, WDR92 / RFU, CUX1 / Fold change vs veh, CUX1 / RFU, TTC7A / Fold change vs veh, TTC7A / RFU, TMEM135 / Fold change vs veh, TMEM135 / RFU, DEPTOR / Fold change vs veh, DEPTOR / RFU, CPM / Fold change vs veh, CPM / RFU, DNAJB6 / Fold change vs veh, DNAJB6 / RFU, CACNA2D3 / Fold change vs veh, CACNA2D3 / RFU, DTX4 / Fold change vs veh, DTX4 / RFU, TFCP2 / Fold change vs veh, TFCP2 / RFU, GMCL1 /// GMCL1P1 / Fold change vs veh, GMCL1 /// GMCL1P1 / RFU, AEBP2 / Fold change vs veh, AEBP2 / RFU, SNHG1 /// SNORD22 /// SNORD25 /// SNORD26 /// SNORD27 /// SNORD28 /// SNORD29 /// SNORD31 / Fold change vs veh, SNHG1 /// SNORD22 /// SNORD25 /// SNORD26 /// SNORD27 /// SNORD28 /// SNORD29 /// SNORD31 / Fold change (Aza/veh), C12orf56 (ProbeSet 11735607_a_at) / Fold change (ACY-1035/veh), C12orf56 (ProbeSet 11735607_a_at) / Fold change (Aza/veh), FGFR1OP (ProbeSet 11751329_s_at) / Fold change (ACY-1035/veh), FGFR1OP (ProbeSet 11751329_s_at) / Fold change (Aza/veh), VPS36 (ProbeSet 11739960_a_at) / Fold change (ACY-1035/veh), VPS36 (ProbeSet 11739960_a_at) / RFU SYPL1 (11715823_x_at) / Fold change /veh SYPL1 (11715823_x_at) / RFU IGFBP7 (11715501_s_at) / Fold change /veh IGFBP7 (11715501_s_at) / RFU REEP3 (11722064_at) / Fold change /veh REEP3 (11722064_at) / RFU IGLL1 (11728026_x_at) / Fold change /veh IGLL1 (11728026_x_at): dose or concentration left out as unconfirmed. As to conditions: MV-4-11 cells, 48 hours.

Structures are written as SMILES.

In the case of `Nc1ncn([C@@H]2O[C@H](CO)[C@@H](O)[C@H]2O)c(=O)n1` [azacitidine], the “RFU KRTAP10-11 (11738290_x_at)” value was 43.89 RFU.
